This note sets out measurements from patent publication US20250236596A1, “HYDROXYLAMINE-BASED EGFR INHIBITORS FOR TREATMENT OF CANCER WITH BRAIN METASTASES” (University of Georgia Research Foundation, Inc., priority 2022, published 2025).

One data set has as its system MDCKII-MDR1 cells. The data set is described as follows: MDCKII-MDR1 cell permeability assay. The format is in vitro ADME, canine. The protocol: (§1) Compounds were evaluated at Pharmaron Inc. for their ability to permeate Caco-2 cells and MDCKII-MDR1 cells. A 96-well HTS Transwell plate (Corning) was used for the Caco-2 and MDCKII-MDR1 cell seeding. Caco-2 cells were seeded at a density of 6.86×10^5 cells/mL and cultivated for 14-18 days prior to assays. MDCKII-MDR1 cells were seeded at a density of 1.56×10^6 cells/mL and cultivated for 4-8 days prior to assays. To determine the rate of drug transport in both the absorptive (apical to basolateral (A-B)) and secretory (basolateral to apical (B-A)) directions, compounds (5 μM in DMSO for Caco-2 cells, and 1 μM in DMSO for MDCKII-MDR1 cells) were added to the donor wells. Plates were incubated at 37° C. for 2 h and samples (50 μL) were taken at the beginning and end of the incubation in both the donor and acceptor wells with the assay run in duplicate (n=2). Samples were analyzed by LC-MS/MS. The apparent permeability coefficient (Papp) in units (cm/s×10^−6) was calculated using the following equation.
(§2) where, VA represents the volume (mL) in the acceptor well. Area is the surface of the membrane (0.143 cm^2 for Transwell-96 well plate) and time is the total transport time in sec.
(§3) The efflux ratio was determined using the following equation: Efflux ratio=Papp (B-A)/Papp(A-B)
(§4) Where, Papp (B-A) indicates the apparent permeability in the basolateral to apical direction, and Papp (A-B) indicates the apparent permeability in the apical to basolateral direction.

In a further data set the test system is Caco-2 cells. The data set is described as follows: Caco-2 cell permeability assay. Type of data set: in vitro ADME. Conditions: for efflux / permeability: result in words. How it is done:
as §1, §2, §3, §4
For orientation: Caco-2 cells form a polarised layer with tight junctions and transporters.

In data set [1] the test system is Salmonella strains (TA98, TA100, TA1537 and TA1535). The format is cell-based. Conditions: with and without rat liver S9; 4 Salmonella strains. The protocol:
Compounds were assessed for mutagenicity at Eurofins Panlabs. in 384-well plates using four Salmonella strains: TA98, to probe for frameshift mutation (with quercetin as control), TA100 and TA1535, to probe for base pair […] (with streptozotocin as control), and TA1537, to probe for frameshift mutations (with aminoacridine as control) as previously described.^21 Each compound was incubated at 37° C. for 96 h at four different concentrations (5, 10, 50, and 100 μM), with each concentration tested using 48 replicates, both with and without rat liver S9 metabolic activation. A concurrent bacterial cytotoxicity assay was ran at 0.6, 1.2, 2.5, 5, 10, 25, 50 and 100 μM to rule out false negatives. Bacterial cytotoxicity was expressed as percent of control growth (OD650). Compounds with growth of less than 60% control were flagged and considered bacterial cytotoxic. […] Significances of the positive counts between the treatment and control were determined using one-tailed Fisher's exact test.

For data set [2], the target named is activating mutant bearing EGFR. The data set is described as follows: KINOMEScan KdELECT inhibitor binding constants (Kd). Conditions: result in words. The protocol:
(§5) In vitro kinase activity (inhibitor binding constants (Kd) and biochemical inhibition (IC50's)) were assessed by Eurofins DiscoverX (Kd determinations) and Eurofins Cerep (biochemical IC50 determinations).

Data set [3] has as its system activating mutant bearing EGFR. The data set is described as follows: KinaseProfiler enzymatic radiometric biochemical inhibition (IC50). Conditions: ATP 10 μM, result in words. How it is done: as §5

With `COc1cc2ncnc(Nc3cccc(Cl)c3F)c2cc1OCCON1CCOCC1` [Compound 13, N-(3-chloro-2-fluorophenyl)-7-methoxy-6-(2-(morpholinooxy)ethoxy)quinazolin-4-amine], the efflux entry is “low efflux” with MDCKII-MDR1 cells (result in words) and “reduced efflux ratios” in the data set with Caco-2 cells. Besides, the permeability result in the data set on MDCKII-MDR1 cells (result in words) is “excellent permeability”; in the data set with Caco-2 cells, “remarkably enhanced permeability”.

Consider `COc1cc2ncnc(Nc3ccc(F)c(Cl)c3)c2cc1OCCCN1CCOCC1` [Compound 1, Gefitinib, reference compound], for which, in data set [1], the “mutagenicity in AMES fluctuation assay” value was “neither 1 or 6 were mutagenic”.

For the molecule `COc1cc2ncnc(Nc3ccc(F)c(Cl)c3)c2cc1OCCON1CCN(C)CC1` [Compound 14, N-(3-chloro-4-fluorophenyl)-7-methoxy-6-(2-((4-methylpiperazin-1-yl)oxy)ethoxy)quinazolin-4-amine], in the data set with Caco-2 cells, the efflux entry is recorded as “high efflux” and the permeability entry is reported as “low permeability”.

As for `COc1cc2ncnc(Nc3ccc(F)c(Cl)c3)c2cc1OCCON1CCOCC1` [Compound 6, N-(3-chloro-4-fluorophenyl)-7-methoxy-6-(2-(morpholinooxy)ethoxy)quinazolin-4-amine], the “inhibitor-binding constants (Kd)” value in data set [2] was “single-digit nanomolar”. Further, in the data set on MDCKII-MDR1 cells, the “increase in permeability compared to 1” value is reported as “roughly 4 fold”. In the data set with MDCKII-MDR1 cells (result in words), the efflux result was “decreased efflux”. The “mutagenicity in AMES fluctuation assay” value in data set [1] is “neither 1 or 6 were mutagenic”. Besides, the “biochemical inhibition (IC50)” value in data set [3] was “single-digit nanomolar”. In addition, in the data set with Caco-2 cells, the “enhancement in permeability compared to 1” value is on record as 14 fold and the efflux entry is “greatly decreased efflux”.
